Results: paper PMC7411887, “New Paracyclophanylthiazoles with Anti-Leukemia Activity: Design, Synthesis, Molecular Docking, and Mechanistic Studies” (Molecules, 2020)
Read-outs that look alike come from different tables or passages of the source.

Key:
SF-539 = experiment: NCI five-dose assay; type: cell-based; conditions: CNS Cancer SF-539
A498 = experiment: NCI five-dose assay; type: cell-based; conditions: Renal Cancer A498
IGROV1 = experiment: NCI five-dose assay; type: cell-based; conditions: Ovarian Cancer IGROV1
SN12C = experiment: NCI five-dose assay; type: cell-based; conditions: Renal Cancer SN12C
EKVX = experiment: NCI five-dose assay; type: cell-based; conditions: Non-Small-Cell Lung Cancer EKVX
caspase-3 = experiment: Caspase-3 ELISA on leukemia SR cell line; type: cell-based, human; conditions: for Caspase 3 Conc: ± SD
Description: Since caspase-3 is important for spreading the apoptotic signal after exposure to antimitotic compounds [38], the effect of compound 3a on the caspase-3 activated enzyme was evaluated using ELISA and replicated three times. The reference compound and 3a were incubated for 30 min at room temperature in the dark on the leukemia SR cell line. […]
color. Add 50 μL of Stop solution into each well and mix thoroughly. The color changes […]
9. Read the O.D. absorbance at 450 nm in a micro-plate reader immediately after adding the
Caspase assay is performed according to the following procedures:
1. Allowing all reagents to reach room temperature before use. Gently mix all liquid reagents prior to use (Note: A standard curve must be run with each assay).
2. Determine the number of 8-well strips needed for the assay. Insert these in the frame(s) for current use. (Re-bag extra strips and frame. Store these in the refrigerator for future […]
3. Add 100 μL of the Standard Diluent Buffer to the zero standard wells. Well(s) reserved for chromogen blank should be left empty.
4. Add 100 μL of standards and controls or diluted samples to the appropriate microtiter wells. The sample dilution chosen should be optimized for each experimental system.
Tap gently on side of plate to mix.
5. Cover wells with plate cover and incubate for 2 hours at room temperature.
6. Thoroughly aspirate or decant solution from wells and discard the liquid. Wash wells 4 times. See Directions for Washing.
7. Pipette 100 μL of Caspase-3 (Active) Detection Antibody solution into each well except the chromogen blank(s). Tap gently on the side of the plate to mix.
8. Cover plate with plate cover and incubate for 1 h at room temperature.
9. Thoroughly aspirate or decant solution from wells and discard the liquid.
10. Wash wells 4 times. See Directions for Washing.
11. Add 100 μL Anti-Rabbit IgG HRP Working Solution to each well except the chromogen blank(s). Prepare the working dilution as described in Preparing IgG HRP.
12. Cover wells with the plate cover and incubate for 30 minutes at room temperature.
13. Thoroughly aspirate or decant solution from wells and discard the liquid. Wash wells 4
14. Add 100 μL of Stabilized Chromogen to each well. The liquid in the wells will begin to
15. Incubate for 30 min at room temperature and in the dark. […]
with aluminum foil or metalized mylar. The incubation time for chromogen substrate is often determined by the microtiter plate reader used. Many plate readers have the capacity to record a maximum optical density (O.D.) of 2.0. The O.D. values should be monitored and the substrate reaction stopped before the O.D. of the positive wells exceeds the limits of the instrument. The O.D. values at 450 nm can only be read after the Stop Solution has been added to each well. If using a reader that records only to 2.0 O.D., […]
16. Add 100 μL of Stop Solution to each well. Tap side of plate gently to mix. The solution in the wells should change from blue to yellow.
17. Read the absorbance of each well at 450 nm having blanked the plate reader against a chromogen blank composed of 100 μL each of Stabilized Chromogen and Stop Solution.
Read the plate within 2 hours after adding the Stop Solution.
18. Use a curve fitting software to generate the standard curve. A four-parameter algorithm provides the best standard curve fit.
19. Read the concentrations for unknown samples and controls from the standard curve.
Multiply value(s) obtained for sample(s) by the appropriate dilution factor to correct for the dilution in step 3. […]

HL-60(TB) = experiment: NCI five-dose assay; type: cell-based; conditions: Leukemia HL-60(TB)
UACC-257 = experiment: NCI five-dose assay; type: cell-based; conditions: Melanoma UACC-257
DU-145 = experiment: NCI five-dose assay; type: cell-based; conditions: Homo sapiens, Prostate Cancer DU-145
UACC-62 = experiment: NCI five-dose assay; type: cell-based; conditions: Melanoma UACC-62
HS 578T = experiment: NCI five-dose assay; type: cell-based; conditions: Breast Cancer HS 578T
MOLT-4 = experiment: NCI five-dose assay; type: cell-based; conditions: Leukemia MOLT-4
NCI-H522 = experiment: NCI five-dose assay; type: cell-based; conditions: Non-Small-Cell Lung Cancer NCI-H522
[1] = system: 60 human tumor cell lines; experiment: NCI five-dose assay, full panel; type: cell-based; conditions: for GI50: Homo sapiens
Description: The outcomes were used to form log concentration vs. percentage growth inhibition curves and three response parameters (GI50, total growth inhibition (TGI), and LC50) were calculated for each cell line (Table 2).
The criterion for selectivity of a compound depends upon the ratio obtained by dividing the full-panel MID (the average sensitivity of all cell lines toward the test agent) (μM) by the individual subpanel MIDs (μM).

[2] = Homo sapiens, read-out: GI50 Concentration/Cell Line
[3] = Homo sapiens, read-out: LC50 (the source's name)

COC(=O)C=C1SC(=NNC(=O)c2cc3ccc2CCc2ccc(cc2)CC3)N(c2ccccc2)C1=O [Compound 3a]
TGI Concentration/Cell Line (SF-539): 3.32 µM
GI50 (SF-539; [2]): 1.79 µM
CC50 (SF-539; [3]): 6.18 µM
CC50 (A498; [3]): > 100 µM
TGI Concentration/Cell Line (A498): 8.36 µM
LC50 (NCI lethal concentration, 50% net cell kill) (IGROV1; Homo sapiens, IGROV-1): 6.44 µM
GI50 (IGROV1; Homo sapiens, IGROV-1, read-out: GI50 Concentration/Cell Line): 1.66 µM
TGI Concentration/Cell Line (IGROV1): 3.27 µM
LC50 (SN12C; Homo sapiens): > 100 µM
GI50 (SN12C; [2]): 2.27 µM
TGI Concentration/Cell Line (SN12C): 5.94 µM
GI50 (EKVX; [2]): 1.91 µM
CC50 (EKVX; [3]): 9.38 µM
TGI Concentration/Cell Line (EKVX): 4.23 µM
level of active caspase-3 (caspase-3): 471.2 ng/mL
Caspase 3 Fold Change (caspase-3; relative to control): 8.84 fold
Caspase 3 Conc (caspase-3): 471.2 ± 6.11 pg/mL
GI50 (HL-60(TB); [2]): 2.7 µM
CC50 (HL-60(TB); [3]): > 100 µM
TGI Concentration/Cell Line (HL-60(TB)): >100 µM
LC50 (UACC-257; Homo sapiens): > 100 µM
GI50 (UACC-257; [2]): 5.14 µM
TGI Concentration/Cell Line (UACC-257): >100 µM
LC50 (DU-145): > 100 µM
GI50 (DU-145; read-out: GI50 Concentration/Cell Line): 5.11 µM
GI50 (UACC-62; [2]): 1.96 µM
CC50 (UACC-62; [3]): 9.02 µM
TGI Concentration/Cell Line (UACC-62): 4.21 µM
TGI Concentration/Cell Line (HS 578T): >100 µM
GI50 (HS 578T; [2]): 3.49 µM
CC50 (HS 578T; [3]): > 100 µM
LC50 (concentration killing 50% of cells) (MOLT-4; Homo sapiens): > 100 µM
GI50 (MOLT-4; [2]): 3.12 µM
TGI Concentration/Cell Line (MOLT-4): >100 µM
LC50 (NCI-H522; Homo sapiens): > 100 µM
GI50 (NCI-H522; [2]): 4.89 µM
TGI Concentration/Cell Line (NCI-H522): >100 µM
GI50 ([1]; full panel, read-out: MID^a (GI50, average sensitivity of all cell lines)): 2.38 µM
GI50 ([1]; nine subpanels, read-out: GI50 range over tested cell lines): 1.52 to 7.56 µM
MID^c (TGI, average sensitivity of all cell lines) ([1]; full panel): 21.1 µM

COc1cc2c(c(OC)c1OC)-c1ccc(OC)c(=O)cc1[C@@H](NC(C)=O)CC2 [Colchicine, colchicine, reference compound]
level of active caspase-3 (caspase-3): 428.9 ng/mL
Caspase 3 Conc (caspase-3): 428.9 ± 5.47 pg/mL
